{
  "source": "patent US20220249441A1",
  "about": "“Homodimeric Tobramycin Adjuvant Repurposes Novobiocin as an Effective Antibacterial Agent Against Gram-Negative Bacteria” (priority 2019, published 2022)",
  "key": {"P. aeruginosa": {"test_system": "P. aeruginosa", "experiment": "Checkerboard assay (antibiotic + adjuvant combination MIC)", "assay_type": "cell-based, Pseudomonas aeruginosa", "details": "Pseudomonas aeruginosa, read-out: MIC of Novobiocin Alone"}, "A. baumannii": {"test_system": "A. baumannii", "experiment": "Checkerboard assay (antibiotic + adjuvant combination MIC)", "assay_type": "cell-based, Acinetobacter baumannii", "details": "Acinetobacter baumannii, read-out: MIC of Novobiocin Alone", "experimental": "(§1) Antimicrobial Susceptibility Assay. The in vitro antimicrobial activity of all compounds/antibiotics against a panel of bacteria was evaluated by microbroth dilution method in accordance with the Clinical and Laboratory Standards Institute (CLSI) guidelines (using ATCC strains as quality control strains) (54). Overnight grown bacterial cultures were diluted in saline to achieve a 0.5 McFarland turbidity, followed by 1:50 dilution in Mueller-Hinton broth (MHB) for inoculation to a final concentration of approximately 5×10^5 CFU/mL. […] The lowest concentration that prevented the visible growth of bacteria was defined as the MIC for each antimicrobial agent. The broth with or without bacterial cells was used as positive or negative control, respectively.\n(§2) Checkerboard Assay. Combination studies with different antibiotics were performed in 96-well plates as previously described (19). Briefly, the antibiotic of interest was serially diluted in MHB along the abscissa while the adjuvant (tobramycin homodimer) was serially diluted in MHB along the ordinate. This creates a 10×7 matrices wherein each well consists of a combination of different antibiotic and adjuvant concentrations. Overnight grown bacterial cultures were diluted in saline to achieve a 0.5 McFarland turbidity, followed by 1:50 dilution in Mueller-Hinton broth (MHB) for inoculation to a final concentration of approximately 5×10^5 CFU/mL. […] MIC was recorded as wells with the lowest concentration of drugs with no bacterial growth. The fractional inhibitory concentration (FIC) for each antibiotic was calculated by dividing the MIC of the antibiotic in the presence of adjuvant by the MIC of the antibiotic alone. Similarly, the FIC of adjuvant was calculated by dividing the MIC of the adjuvant in the presence of antibiotic by the MIC of the adjuvant alone. FIC index is the sum of both FICs. FIC indices of ≤0.5 were deemed synergistic; >0.5-4, no interaction; and >4, antagonistic."}, "E. coli": {"test_system": "E. coli", "experiment": "Checkerboard assay (antibiotic + adjuvant combination MIC)", "assay_type": "cell-based, Escherichia coli", "details": "Escherichia coli, read-out: MIC of Novobiocin Alone", "experimental": "as §1, §2"}, "K. pneumoniae": {"test_system": "K. pneumoniae", "experiment": "Checkerboard assay (antibiotic + adjuvant combination MIC)", "assay_type": "cell-based, Klebsiella pneumoniae", "details": "for MIC: Klebsiella pneumoniae, read-out: MIC of Novobiocin Alone", "experimental": "as §1, §2"}, "E. cloacae": {"test_system": "E. cloacae", "experiment": "Checkerboard assay (antibiotic + adjuvant combination MIC)", "assay_type": "cell-based, Enterobacter cloacae", "details": "Enterobacter cloacae, read-out: MIC of Novobiocin Alone", "experimental": "as §1, §2"}, "E. faecium ATCC 27270": {"test_system": "E. faecium ATCC 27270", "experiment": "MIC and combination against Gram-positive bacteria", "assay_type": "cell-based", "details": "Enterococcus faecium, ATCC27270", "experimental": "(§3) Next, we investigated whether tobramycin by itself would potentiate novobiocin against Gram-negative bacteria.\nas §1"}, "MRSA ATCC 33592": {"test_system": "MRSA ATCC 33592", "experiment": "MIC and combination against Gram-positive bacteria", "assay_type": "cell-based", "details": "Staphylococcus aureus", "experimental": "as §3, §1"}, "MRSE 61589": {"test_system": "MRSE 61589", "experiment": "MIC and combination against Gram-positive bacteria", "assay_type": "cell-based", "details": "Staphylococcus epidermidis", "experimental": "as §3, §1"}, "MDR A. baumannii": {"test_system": "MDR A. baumannii", "experiment": "Galleria mellonella in vivo larvae-infection model", "details": "single dose 100 mg/kg, agent alone; after 24 h", "experimental": "Galleria mellonella In vivo Larvae-Infection Model. In vivo synergistic effects were determined using Galleria mellonella infection model, as previously described (49). Briefly, larvae were purchased from The Worm Lady Live Feeder (ON, Canada), stored in their natural habitat at 16° C., and used within 10 days of delivery. The larvae (average weight of 250 mg) were used for tolerability and efficacy studies. Tolerability study was performed by injecting a 10 μL aliquot of antimicrobial agents only at concentrations equivalent to 100 mg/kg or 200 mg/kg. The larvae (ten in each group) were incubated at 37° C. and monitored for 96 h. For efficacy studies, the virulence and bacterial load required to kill 100% of the larvae within 24 h (with no treatment) was first determined, which is approximately 10 CFU. Overnight grown culture of respective MDR A. baumannii isolate was standardized to 0.5 McFarland standard and diluted in PBS to a final concentration of 10^3 CFU/mL. A 10 μL aliquot of this solution (˜10 CFU) was injected into each larva and incubated for 3 h at 37° C. […] Larvae treated with 10 μL of PBS or high concentrations of test antibiotics served as negative and positive control, respectively. The larvae were incubated at 37° C. in Petri dishes lined with filter paper and scored for survivability every 6 h for up to 36 h. […]"}, "E. coli ATCC 25922": {"test_system": "E. coli ATCC 25922", "experiment": "Time-kill assay", "assay_type": "cell-based, Escherichia coli", "details": "novobiocin 32 μg/ml, compound 1 7.1 μM", "experimental": "Time-kill Assay. […] At specific time intervals (0, 1, 3, 6, 9, and 24 h), 100 μl was taken from each sample, serially diluted in sterile PBS, plated on LB agar plates, and incubated at 37° C. in a humid 5% CO2-enriched atmosphere. Bacterial colonies were counted after 20 h of incubation."}, "A. baumannii ATCC 17978": {"test_system": "A. baumannii ATCC 17978", "experiment": "microbe, parasite or virus in culture", "assay_type": "cell-based, Acinetobacter baumannii", "experimental": "Development of Resistance Study. […] Tobramycin and colistin were included as controls. At 24-hour intervals, the cultures were assessed for growth. […] This serial passaging was repeated for 8 days."}},
  "note": "Where two headings read alike, the source gives them in different places.",
  "data": [
    {"smiles": "CO[C@@H]1[C@@H](OC(N)=O)[C@@H](O)[C@H](Oc2ccc3c(O)c(NC(=O)c4ccc(O)c(CC=C(C)C)c4)c(=O)oc3c2C)OC1(C)C", "note": "[Novobiocin]", "values": [
      {"measurement": "MIC", "setting": "P. aeruginosa; P. aeruginosa 259-96918", "result": 512, "unit": "µg/mL"},
      {"measurement": "MIC", "setting": "P. aeruginosa; P. aeruginosa 260-97103", "result": 256, "unit": "µg/mL"},
      {"measurement": "MIC", "setting": "P. aeruginosa; P. aeruginosa 262-101856", "result": 512, "unit": "µg/mL"},
      {"measurement": "MIC", "setting": "P. aeruginosa; P. aeruginosa 264-104354", "result": 512, "unit": "µg/mL"},
      {"measurement": "MIC", "setting": "P. aeruginosa; P. aeruginosa 91433", "result": 16, "unit": "µg/mL"},
      {"measurement": "MIC", "setting": "P. aeruginosa; P. aeruginosa 100036", "result": 1020, "unit": "µg/mL"},
      {"measurement": "MIC", "setting": "P. aeruginosa; P. aeruginosa 101243", "result": 128, "unit": "µg/mL"},
      {"measurement": "MIC", "setting": "P. aeruginosa; P. aeruginosa 101885", "result": 1020, "unit": "µg/mL"},
      {"measurement": "MIC", "setting": "P. aeruginosa; P. aeruginosa 114228", "result": 512, "unit": "µg/mL"},
      {"measurement": "MIC", "setting": "P. aeruginosa; PA 91433", "result": 16, "unit": "µg/mL"},
      {"measurement": "MIC", "setting": "P. aeruginosa; PA 101243", "result": 128, "unit": "µg/mL"},
      {"measurement": "MIC", "setting": "P. aeruginosa; PA 114228", "result": 512, "unit": "µg/mL"},
      {"measurement": "MIC", "setting": "P. aeruginosa; PAO1, P. aeruginosa PAO1", "result": 512, "unit": "µg/mL"},
      {"measurement": "MIC", "setting": "P. aeruginosa; PAO1, PAO1 (wild-type)", "result": 512, "unit": "µg/mL"},
      {"measurement": "MIC", "setting": "P. aeruginosa; PAO1, PAO1", "result": 512, "unit": "µg/mL"},
      {"measurement": "MIC", "setting": "P. aeruginosa; PAO200 (efflux-deficient)", "result": 32, "unit": "µg/mL"},
      {"measurement": "MIC", "setting": "P. aeruginosa; PAO750 (efflux-deficient)", "result": 32, "unit": "µg/mL"},
      {"measurement": "MIC", "setting": "A. baumannii; A. baumannii 027", "result": 8, "unit": "µg/mL"},
      {"measurement": "MIC", "setting": "A. baumannii; A. baumannii 031", "result": 8, "unit": "µg/mL"},
      {"measurement": "MIC", "setting": "A. baumannii; A. baumannii 92247", "result": 4, "unit": "µg/mL"},
      {"measurement": "MIC", "setting": "A. baumannii; A. baumannii LAC-4", "result": 8, "unit": "µg/mL"},
      {"measurement": "MIC", "setting": "A. baumannii; AB 92247", "result": 4, "unit": "µg/mL"},
      {"measurement": "MIC", "setting": "A. baumannii; ATCC17978, A. baumannii ATCC 17978", "result": 16, "unit": "µg/mL"},
      {"measurement": "MIC", "setting": "A. baumannii; A. baumannii 110193", "result": 256, "unit": "µg/mL"},
      {"measurement": "MIC", "setting": "E. coli; ATCC25922, E. coli ATCC 25922", "result": 64, "unit": "µg/mL"},
      {"measurement": "MIC", "setting": "E. coli; E. coli 94393", "result": 128, "unit": "µg/mL"},
      {"measurement": "MIC", "setting": "E. coli; E. coli 94474", "result": 256, "unit": "µg/mL"},
      {"measurement": "MIC", "setting": "E. coli; E. coli 107115", "result": 128, "unit": "µg/mL"},
      {"measurement": "MIC of Novobiocin Alone", "setting": "K. pneumoniae", "result": 256, "unit": "µg/mL"},
      {"measurement": "MIC", "setting": "K. pneumoniae; K. pneumoniae 113250", "result": 512, "unit": "µg/mL"},
      {"measurement": "MIC", "setting": "K. pneumoniae; K. pneumoniae 113254", "result": 256, "unit": "µg/mL"},
      {"measurement": "MIC", "setting": "K. pneumoniae; K. pneumoniae 116381", "result": 1020, "unit": "µg/mL"},
      {"measurement": "MIC", "setting": "E. cloacae; E. cloacae 117029", "result": 1020, "unit": "µg/mL"},
      {"measurement": "MIC", "setting": "E. cloacae; E. cloacae 118568", "result": 1020, "unit": "µg/mL"},
      {"measurement": "MIC", "setting": "E. cloacae; E. cloacae 121187", "result": 64, "unit": "µg/mL"},
      {"measurement": "MIC", "setting": "E. cloacae; EC 118568", "result": 1020, "unit": "µg/mL"},
      {"measurement": "MIC", "setting": "E. faecium ATCC 27270", "result": 2, "unit": "µg/mL"},
      {"measurement": "MIC", "setting": "MRSA ATCC 33592", "result": 0.125, "unit": "µg/mL"},
      {"measurement": "MIC", "setting": "MRSE 61589", "result": 0.0625, "unit": "µg/mL"},
      {"measurement": "mortality of infected larvae", "setting": "MDR A. baumannii", "result": 100, "unit": "%"},
      {"measurement": "incubation time after which bactericidal", "setting": "E. coli ATCC 25922", "result": 24, "unit": "h"},
      {"measurement": "fold change in MIC", "setting": "A. baumannii ATCC 17978; after 3 days of serial passaging", "result": 64, "unit": "fold"},
      {"measurement": "fold change in MIC", "setting": "A. baumannii ATCC 17978; after 5 days of serial passaging", "result": 256, "unit": "fold"}
    ]}
  ]
}
